ChEMBL document CHEMBL1201862, “PubChem BioAssay data set” (2004)
The source made the active and inactive calls.

Key:
Cytochrome P450 2D6 = Cytochrome P450 2D6 (Homo sapiens, UniProt P10635);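 also: CYP2D6 member of a cytochrome P450 panel assay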
Protein RecA = target: T1, Protein RecA (Mycobacterium tuberculosis, UniProt P9WHJ3); assay: Fluorescence Cell-Free Homogeneous Dose Retest to Identify Inhibitors of RecA-Intein Splicing Activity. [Related pubchem assays (depositor defined):AID2097, AID2223, AID489010, AID492950]; format: functional
T1 sequence (P9WHJ3 whole entry): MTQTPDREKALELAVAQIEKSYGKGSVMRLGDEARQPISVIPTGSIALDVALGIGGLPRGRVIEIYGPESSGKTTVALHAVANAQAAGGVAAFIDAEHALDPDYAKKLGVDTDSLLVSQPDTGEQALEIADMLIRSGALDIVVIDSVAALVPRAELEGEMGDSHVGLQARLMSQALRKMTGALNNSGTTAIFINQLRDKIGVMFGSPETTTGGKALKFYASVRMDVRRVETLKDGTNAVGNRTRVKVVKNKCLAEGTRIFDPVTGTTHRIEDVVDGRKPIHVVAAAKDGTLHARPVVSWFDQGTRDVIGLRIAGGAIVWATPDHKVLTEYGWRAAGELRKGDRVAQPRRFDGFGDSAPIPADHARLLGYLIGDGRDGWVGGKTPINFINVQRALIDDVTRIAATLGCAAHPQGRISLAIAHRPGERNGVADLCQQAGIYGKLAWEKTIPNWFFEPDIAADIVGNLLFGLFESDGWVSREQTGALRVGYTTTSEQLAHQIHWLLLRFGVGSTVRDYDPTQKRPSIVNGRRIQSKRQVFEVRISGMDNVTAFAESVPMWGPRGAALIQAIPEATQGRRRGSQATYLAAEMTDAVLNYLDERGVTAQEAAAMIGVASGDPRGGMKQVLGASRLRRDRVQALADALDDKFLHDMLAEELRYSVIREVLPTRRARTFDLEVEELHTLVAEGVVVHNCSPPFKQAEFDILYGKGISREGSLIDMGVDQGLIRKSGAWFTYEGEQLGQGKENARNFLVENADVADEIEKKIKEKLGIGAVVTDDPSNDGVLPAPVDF

[1] = target: T2, Replicative DNA helicase DnaB (Mycobacterium tuberculosis, UniProt P9WMR3); assay: DnaB intein splicing inhibitors, dose response, biochemical, cell-free fluorescence (AID 449749); format: functional
T2 sequence (P9WMR3 whole entry): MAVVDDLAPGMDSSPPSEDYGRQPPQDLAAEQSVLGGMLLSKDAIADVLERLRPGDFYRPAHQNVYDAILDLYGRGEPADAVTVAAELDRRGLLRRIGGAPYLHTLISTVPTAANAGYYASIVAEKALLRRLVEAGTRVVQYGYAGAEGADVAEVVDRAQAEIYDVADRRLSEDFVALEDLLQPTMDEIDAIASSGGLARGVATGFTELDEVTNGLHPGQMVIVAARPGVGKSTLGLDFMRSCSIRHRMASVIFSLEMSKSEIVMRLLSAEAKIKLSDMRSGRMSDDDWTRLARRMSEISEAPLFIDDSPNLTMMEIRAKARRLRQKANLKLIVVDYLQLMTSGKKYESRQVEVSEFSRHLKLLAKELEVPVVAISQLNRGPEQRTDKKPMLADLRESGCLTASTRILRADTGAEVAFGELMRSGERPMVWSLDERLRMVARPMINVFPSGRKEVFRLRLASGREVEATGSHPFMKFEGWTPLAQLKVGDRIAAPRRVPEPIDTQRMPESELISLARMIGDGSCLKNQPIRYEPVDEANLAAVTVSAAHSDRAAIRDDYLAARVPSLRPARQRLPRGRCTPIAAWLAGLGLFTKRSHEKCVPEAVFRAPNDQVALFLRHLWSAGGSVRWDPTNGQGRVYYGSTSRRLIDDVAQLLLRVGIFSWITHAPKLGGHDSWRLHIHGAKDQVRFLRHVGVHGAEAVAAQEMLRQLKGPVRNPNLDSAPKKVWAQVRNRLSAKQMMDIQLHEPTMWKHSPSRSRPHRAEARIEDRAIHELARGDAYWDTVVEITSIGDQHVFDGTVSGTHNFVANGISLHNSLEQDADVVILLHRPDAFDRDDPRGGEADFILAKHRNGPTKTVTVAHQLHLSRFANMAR

Cytochrome P450 2C9 = Cytochrome P450 2C9 (Homo sapiens, UniProt P11712)
[2] = target: T3, Calpain-2 catalytic subunit (Sus scrofa, UniProt P43367); assay: pig calpain II inhibitor potency, dose response, biochemical, fluorogenic peptide substrate (AID 1420); format: functional
T3 sequence (P43367 whole entry): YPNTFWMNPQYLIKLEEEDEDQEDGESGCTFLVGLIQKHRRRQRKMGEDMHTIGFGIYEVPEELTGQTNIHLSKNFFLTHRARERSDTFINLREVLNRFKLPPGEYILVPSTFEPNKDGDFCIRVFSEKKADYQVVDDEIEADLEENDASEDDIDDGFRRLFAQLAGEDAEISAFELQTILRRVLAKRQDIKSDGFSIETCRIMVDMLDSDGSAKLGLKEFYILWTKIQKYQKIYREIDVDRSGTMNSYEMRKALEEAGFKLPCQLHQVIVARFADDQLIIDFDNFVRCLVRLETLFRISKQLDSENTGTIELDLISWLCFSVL

[3] = cytotoxicity toward DRD oncogenic fibroblasts, dose response, cell-based, non-viral oncogenic, luminescence (AID 1934); format: functional; settings: Homo sapiens
BJ [4] = assay: cells; format: functional, cell-based; settings: Homo sapiens
BJ [5] = assay: cytotoxicity toward BJ-TERT fibroblasts, dose response, cell-based, RAS-independent, luminescence (AID 1933); format: functional; settings: Homo sapiens
BJ [6] = assay: cytotoxicity toward BJ-TERT-LT-ST fibroblasts, dose response, cell-based, RAS-independent, luminescence (AID 1935); format: functional; settings: Homo sapiens;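 also: BJ fibroblasts immortalized with TERT plus LT and ST oncogenes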
[7] = target: T4, Ubiquitin-conjugating enzyme E2 N (Homo sapiens, UniProt P61088); format: functional;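 also: Dose-response confirmation in a TR-FRET assay detecting UBC13-driven polyubiquitin chain formation, inhibition measured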
T4 sequence (P61088 whole entry): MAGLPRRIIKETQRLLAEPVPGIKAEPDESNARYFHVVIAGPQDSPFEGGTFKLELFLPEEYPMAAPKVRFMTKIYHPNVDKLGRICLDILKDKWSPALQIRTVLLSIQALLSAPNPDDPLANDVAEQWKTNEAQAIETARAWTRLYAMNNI

INS1 = assay: beta cell apoptosis inhibitors, cytokine rescue, dose response, luminescence, retest (AID 449756); format: functional, cell-based; settings: Rattus norvegicus;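 also: cell death triggered by IL-1 beta plus TNF-alpha plus IFN-gamma mixture; protective hits raise ATP signal compared with cytokine alone wells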
Cytochrome P450 3A4 = Cytochrome P450 3A4 (Homo sapiens, UniProt P08684);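 also: CYP3A4 tested as one member of a cytochrome P450 panel screen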
[8] = inhibitors of intracellular T. cruzi replication, confirmation, NIH3T3 host cells, beta-gal luminescence (AID 2044); format: functional, cell-based;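 also: intracellular parasites grown in NIH/3T3 mouse fibroblasts as host cells; luminescent beta-galactosidase reporter signal from transgenic T. cruzi replicating inside host cells; inhibitors lower the luminescence signal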
Cytochrome P450 2C19 = Cytochrome P450 2C19 (Homo sapiens, UniProt P33261); assay: Cytochrome panel assay with activity outcomes. Panel member name: p450-cyp2c19 Compounds with AC50 equal or less than 10 uM are considered active; format: functional
Cytochrome P450 1A2 = target: T5, Cytochrome P450 1A2 (Homo sapiens, UniProt P05177);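 also: PubChem cytochrome P450 panel assay, CYP1A2 panel member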
T5 sequence (P05177 whole entry): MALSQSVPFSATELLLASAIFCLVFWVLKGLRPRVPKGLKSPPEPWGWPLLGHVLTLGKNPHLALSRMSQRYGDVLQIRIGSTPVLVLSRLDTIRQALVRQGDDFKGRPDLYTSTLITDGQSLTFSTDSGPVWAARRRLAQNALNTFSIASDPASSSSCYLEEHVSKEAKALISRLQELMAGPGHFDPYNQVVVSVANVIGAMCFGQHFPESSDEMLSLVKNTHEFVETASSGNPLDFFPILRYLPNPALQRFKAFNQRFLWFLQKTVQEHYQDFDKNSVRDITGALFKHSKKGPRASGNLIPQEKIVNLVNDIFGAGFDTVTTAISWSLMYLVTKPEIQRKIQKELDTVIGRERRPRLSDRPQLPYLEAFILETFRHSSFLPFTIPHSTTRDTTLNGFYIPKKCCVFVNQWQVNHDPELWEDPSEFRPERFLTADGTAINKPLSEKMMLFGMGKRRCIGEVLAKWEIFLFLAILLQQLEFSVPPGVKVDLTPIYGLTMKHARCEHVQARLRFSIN

[9] = growth suppression of beta-catenin-knockout colon cells, dose response, cell-based, HCT116, human colon tumor (AID 1045); format: functional;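 also: HCT116 colon tumor cells with beta catenin knocked out; cells exposed to compound for 60 hours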
[10] = growth suppression of PTEN-null colon cells, dose response, cell-based, HCT116 PTEN knockout (AID 1047); format: functional;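 also: HCT116 colon tumor cells with PTEN knocked out; cells exposed to compound for 60 hours before readout; potency for loss of cell viability measured by luminescence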
[11] = C. albicans growth with fluconazole, confirmation, fluorescence, retest (AID 2467); format: functional, cell-based
[12] = NIH-3T3 fibroblast cytotoxicity, dose response, cytotoxicity control, cell-based, fluorescence, Alamar Blue, secondary assay (AID 2327); format: functional;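 also: NIH-3T3 mouse fibroblasts cultured with fluconazole at 8 µg/mL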
Nonstructural protein 1 = Nonstructural protein 1 (Influenza A virus, UniProt Q194T2); format: functional, Influenza A virus (A/California/07/2009(H1N1))
Chain of Nonstructural protein 1 (Q194T2 whole entry): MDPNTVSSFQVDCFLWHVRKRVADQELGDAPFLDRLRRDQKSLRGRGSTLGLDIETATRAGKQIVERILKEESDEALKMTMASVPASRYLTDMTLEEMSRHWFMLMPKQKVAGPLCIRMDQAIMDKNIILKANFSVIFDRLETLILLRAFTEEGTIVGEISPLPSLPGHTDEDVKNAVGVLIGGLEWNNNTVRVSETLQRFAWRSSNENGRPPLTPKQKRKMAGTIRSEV

Chain of Cytochrome P450 2C19 (P33261 whole entry): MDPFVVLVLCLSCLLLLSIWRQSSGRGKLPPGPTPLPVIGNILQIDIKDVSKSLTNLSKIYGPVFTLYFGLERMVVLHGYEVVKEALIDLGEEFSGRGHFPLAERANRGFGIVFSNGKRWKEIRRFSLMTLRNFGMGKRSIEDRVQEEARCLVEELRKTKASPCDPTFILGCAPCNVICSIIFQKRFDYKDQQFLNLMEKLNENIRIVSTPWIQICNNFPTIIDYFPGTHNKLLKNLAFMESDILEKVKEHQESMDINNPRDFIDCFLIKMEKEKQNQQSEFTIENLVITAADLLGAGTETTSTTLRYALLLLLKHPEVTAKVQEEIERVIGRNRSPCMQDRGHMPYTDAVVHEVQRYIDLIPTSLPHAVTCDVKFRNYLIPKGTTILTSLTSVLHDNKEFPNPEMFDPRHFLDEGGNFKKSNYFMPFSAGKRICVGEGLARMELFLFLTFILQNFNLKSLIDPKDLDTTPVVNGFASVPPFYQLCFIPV
Chain of Cytochrome P450 2C9 (P11712 whole entry): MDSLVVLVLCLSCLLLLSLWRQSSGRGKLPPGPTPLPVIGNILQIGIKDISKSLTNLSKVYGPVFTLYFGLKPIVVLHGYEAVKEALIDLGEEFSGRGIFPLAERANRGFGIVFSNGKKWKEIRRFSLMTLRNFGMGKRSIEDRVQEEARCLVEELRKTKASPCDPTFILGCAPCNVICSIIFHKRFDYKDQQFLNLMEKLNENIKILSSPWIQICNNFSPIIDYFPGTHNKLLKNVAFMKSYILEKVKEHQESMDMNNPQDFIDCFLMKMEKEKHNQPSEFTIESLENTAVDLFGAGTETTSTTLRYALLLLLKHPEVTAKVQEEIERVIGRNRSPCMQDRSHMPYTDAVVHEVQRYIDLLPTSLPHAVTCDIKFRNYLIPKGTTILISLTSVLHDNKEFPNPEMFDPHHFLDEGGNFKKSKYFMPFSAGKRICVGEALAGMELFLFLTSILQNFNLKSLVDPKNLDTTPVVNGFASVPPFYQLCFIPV
Chain of Cytochrome P450 3A4 (P08684 whole entry): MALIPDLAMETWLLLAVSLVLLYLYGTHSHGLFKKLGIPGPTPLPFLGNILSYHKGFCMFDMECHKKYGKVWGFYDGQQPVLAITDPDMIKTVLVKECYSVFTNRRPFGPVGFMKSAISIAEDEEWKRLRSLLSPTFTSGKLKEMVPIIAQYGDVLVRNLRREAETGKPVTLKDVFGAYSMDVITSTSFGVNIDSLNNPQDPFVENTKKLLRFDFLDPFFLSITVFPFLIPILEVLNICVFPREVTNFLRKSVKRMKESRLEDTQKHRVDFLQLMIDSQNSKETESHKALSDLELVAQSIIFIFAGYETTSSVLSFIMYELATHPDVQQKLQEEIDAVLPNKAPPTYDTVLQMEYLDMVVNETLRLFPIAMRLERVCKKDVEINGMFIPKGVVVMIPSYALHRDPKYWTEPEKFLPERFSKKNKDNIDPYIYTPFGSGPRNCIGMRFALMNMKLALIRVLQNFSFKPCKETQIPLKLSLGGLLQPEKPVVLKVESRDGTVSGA
Chain of Cytochrome P450 2D6 (P10635 whole entry): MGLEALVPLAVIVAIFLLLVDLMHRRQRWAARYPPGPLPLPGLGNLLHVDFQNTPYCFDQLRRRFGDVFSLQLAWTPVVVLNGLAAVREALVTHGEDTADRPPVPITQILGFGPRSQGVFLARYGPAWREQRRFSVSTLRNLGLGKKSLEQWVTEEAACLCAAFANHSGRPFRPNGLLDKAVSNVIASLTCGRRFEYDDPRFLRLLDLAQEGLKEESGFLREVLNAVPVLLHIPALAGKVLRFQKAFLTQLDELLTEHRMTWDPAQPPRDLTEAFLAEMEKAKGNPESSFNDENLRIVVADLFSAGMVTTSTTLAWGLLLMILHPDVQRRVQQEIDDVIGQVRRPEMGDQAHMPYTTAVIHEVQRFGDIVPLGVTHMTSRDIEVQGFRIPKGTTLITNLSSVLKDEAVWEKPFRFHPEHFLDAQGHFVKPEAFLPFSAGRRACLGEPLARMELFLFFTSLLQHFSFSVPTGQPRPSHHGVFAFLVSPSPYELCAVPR

CCOC(=O)c1oc2nc(CC(C)C)c3c(c2c1N)CCC3
AC50 (Cytochrome P450 2D6): 25.1 µM (inconclusive)
EC50 (Protein RecA): > 380 µM (inactive)
AC50 [1]: 91.7 µM (active)
AC50 (Cytochrome P450 2C9): inconclusive

COc1cc(C(=O)NCc2ccc3c(c2)cc(C)n3C)cc(OC)c1OC
IC50 [2]: > 50 µM (not active)

O=C(N1CCN(c2ccccn2)CC1)N1c2ccccc2Sc2ccccc21
EC50 [3]: 0.523 µM (active)
EC50 (BJ [4]): 53.6 µM (inconclusive)
IC50 [2]: 4.55 µM (not active)
EC50 (BJ [5]): 0.62 µM (active)
EC50 (BJ [6]): 0.979 µM (inconclusive)

CN(C)CCCn1cnc2c(c1=N)C(c1ccccc1)c1ccc3ccccc3c1O2 (stereo not drawn)
EC50 [3]: 5.25 µM (active)
IC50 [7]: > 20 µM (inactive)
EC50 (BJ [4]): 8.21 µM (active)
EC50 (BJ [5]): 5.45 µM (inconclusive)
EC50 (BJ [6]): 4.25 µM (active)
AC50 (INS1): 6.49 µM (active)

CC(C)(C)NC[C@H](O)COc1nsnc1N1CCOCC1 [TIMOLOL]
AC50 (Cytochrome P450 2C9): inactive

C/C(=N\NC(=O)c1ccc(Cl)cc1)c1ccc(Br)s1
AC50 (Cytochrome P450 3A4): 14.1 µM (inconclusive)
EC50 [8]: 1.91 µM (active)
AC50 (Cytochrome P450 2C19; read-out: AC50): 17.8 µM (inconclusive)
AC50 (Cytochrome P450 2C9): inconclusive

CN(C)C(=O)c1ccc(-c2ccc3ncnc(N4CCC(C(=O)O)CC4)c3c2)cc1
AC50 (Cytochrome P450 2C9): inconclusive
AC50 (Cytochrome P450 1A2): 39.8 µM (inconclusive)

CCCCN(C)CCCNC(=O)C[S+]([O-])Cc1nc(-c2ccc(OC)c(OC)c2)oc1C (stereo not drawn)
AC50 (Cytochrome P450 2C19): inconclusive
AC50 (Cytochrome P450 2C9): inconclusive

CCCCn1cc[n+](C2=C([N-]S(=O)(=O)c3ccccc3)C(=O)c3ccccc3C2=O)c1
EC50 [9]: 5.73 µM (active)
EC50 [10]: 5.34 µM (active)

COc1ccc(/C=C2\N=C(SC)NC2=O)cc1
EC50 [11]: > 38 µM (not active)
EC50 [12]: > 150 µM (inactive)

O=c1[nH]cc(/N=C/c2cc([N+](=O)[O-])ccc2O)c(=O)[nH]1
EC50 (Protein RecA): 5.48 µM (active)
AC50 [1]: 5.98 µM (active)
EC50 [11]: > 38 µM (not active)
EC50 [12]: > 150 µM (inactive)

CC(=O)Oc1ccc2ccccc2c1C(NC(=O)Cc1ccccc1)c1ccccc1Cl (stereo not drawn)
EC50 [9]: 27.7 µM (active)
EC50 [10]: 22.4 µM (active)

O=c1c(-c2ccc(F)cc2)nc2cnc(N3CCOCC3)nc2n1C[C@H]1CCCO1
AC50 (Cytochrome P450 2C19): inconclusive
AC50 (Cytochrome P450 2C9): inconclusive

NCCCNC(=O)Cn1c(=O)c2c3c(sc2n(Cc2ccccc2)c1=O)CCCC3
IC50 (Nonstructural protein 1): > 100 µM (active)
